According to the supplement of paper PMC13380429:

Experiments:
Conditions in all cases: 72 h
[1] = test system: Caco-2; test: cell viability relative to DMSO; higher = less toxic
[2] = test system: HepG2; test: as above
[3] = test system: U2OS; test: as above
[4] = test system: Vero E6; test: as above
[5] = test system: Caco-2; test: relative viability EC50 (midpoint between 100% and the lowest measured viability); higher = less toxic
[6] = test system: HepG2; test: as above
[7] = test system: U2OS; test: as above
[8] = test system: Vero E6; test: as above
[9] = test system: Caco-2; test: drug sensitivity score (DSS) for viability; higher = more toxic; extreme values may be limits of the assay
[10] = test system: HepG2; test: as above
[11] = test system: U2OS; test: as above
[12] = test system: Vero E6; test: as above
[13] = test system: Calu-3; test: cell viability relative to DMSO; higher = less toxic
[14] = test system: Calu-3; test: relative viability EC50 (midpoint between 100% and the lowest measured viability); higher = less toxic
[15] = test system: Calu-3; test: drug sensitivity score (DSS) for viability; higher = more toxic; extreme values may be limits of the assay

Cc1ccc(OCCSc2ncccn2)c(Br)c1 [ZLN024]
cell viability ([1]; 1 nM): 99.2%
cell viability ([1]; 10 nM): 104%
cell viability ([1]; 100 nM): 94.8%
cell viability ([1]; 1000 nM): 97%
cell viability ([1]; 10000 nM): 102%
cell viability ([2]; 1 nM): 105%
cell viability ([2]; 10 nM): 106%
cell viability ([2]; 100 nM): 109%
cell viability ([2]; 1000 nM): 99.9%
cell viability ([2]; 10000 nM): 110%
cell viability ([3]; 1 nM): 97.8%
cell viability ([3]; 10 nM): 105%
cell viability ([3]; 100 nM): 97.1%
cell viability ([3]; 1000 nM): 101%
cell viability ([3]; 10000 nM): 101%
cell viability ([4]; 1 nM): 106%
cell viability ([4]; 10 nM): 98.2%
cell viability ([4]; 100 nM): 107%
cell viability ([4]; 1000 nM): 102%
cell viability ([4]; 10000 nM): 105%
relative viability EC50 [5]: > 10 µM
relative viability EC50 [6]: > 10 µM
relative viability EC50 [7]: > 10 µM
relative viability EC50 [8]: > 10 µM
drug sensitivity score [9]: 0
drug sensitivity score [10]: 0
drug sensitivity score [11]: 0
drug sensitivity score [12]: 0

CCN(CCCc1ccccc1)CCCc1ccccc1 [alverine]
cell viability ([1]; 1 nM): 101%
cell viability ([1]; 10 nM): 93.6%
cell viability ([1]; 100 nM): 99.2%
cell viability ([1]; 1000 nM): 97.8%
cell viability ([1]; 10000 nM): 94.8%
cell viability ([2]; 1 nM): 107%
cell viability ([2]; 10 nM): 87.3%
cell viability ([2]; 100 nM): 96.7%
cell viability ([2]; 1000 nM): 98.1%
cell viability ([2]; 10000 nM): 76.2%
cell viability ([3]; 1 nM): 102%
cell viability ([3]; 10 nM): 100%
cell viability ([3]; 100 nM): 101%
cell viability ([3]; 1000 nM): 97.8%
cell viability ([3]; 10000 nM): 102%
cell viability ([4]; 1 nM): 97.2%
cell viability ([4]; 10 nM): 93.4%
cell viability ([4]; 100 nM): 100%
cell viability ([4]; 1000 nM): 97.9%
cell viability ([4]; 10000 nM): 100%
relative viability EC50 [5]: > 10 µM
relative viability EC50 [6]: > 10 µM
relative viability EC50 [7]: > 10 µM
relative viability EC50 [8]: > 10 µM
drug sensitivity score [9]: 0
drug sensitivity score [10]: 1.1
drug sensitivity score [11]: 0
drug sensitivity score [12]: 0

NCc1ccccc1CC(=O)N[C@@H]1C(=O)N2C(C(=O)O)=C(CSc3nnnn3CC(=O)O)CS[C@H]12 [ceforanide]
cell viability ([1]; 1 nM): 88.4%
cell viability ([1]; 10 nM): 92.9%
cell viability ([1]; 100 nM): 102%
cell viability ([1]; 1000 nM): 99.3%
cell viability ([1]; 10000 nM): 100%
cell viability ([2]; 1 nM): 99.5%
cell viability ([2]; 10 nM): 106%
cell viability ([2]; 100 nM): 109%
cell viability ([2]; 1000 nM): 98%
cell viability ([2]; 10000 nM): 106%
cell viability ([3]; 1 nM): 96.3%
cell viability ([3]; 10 nM): 97.3%
cell viability ([3]; 100 nM): 100%
cell viability ([3]; 1000 nM): 102%
cell viability ([3]; 10000 nM): 103%
cell viability ([4]; 1 nM): 97.3%
cell viability ([4]; 10 nM): 98%
cell viability ([4]; 100 nM): 96.8%
cell viability ([4]; 1000 nM): 93.8%
cell viability ([4]; 10000 nM): 103%
relative viability EC50 [5]: > 10 µM
relative viability EC50 [6]: > 10 µM
relative viability EC50 [7]: > 10 µM
relative viability EC50 [8]: > 10 µM
drug sensitivity score [9]: 0
drug sensitivity score [10]: 0
drug sensitivity score [11]: 0
drug sensitivity score [12]: 0

CCC1(C2=NCCN2)Cc2ccccc2O1 (stereo unspecified) [efaroxan]
cell viability ([1]; 1 nM): 102%
cell viability ([1]; 10 nM): 96.7%
cell viability ([1]; 100 nM): 97.1%
cell viability ([1]; 1000 nM): 90.4%
cell viability ([1]; 10000 nM): 98.7%
cell viability ([13]; 1 nM): 109%
cell viability ([13]; 10 nM): 93.4%
cell viability ([13]; 100 nM): 109%
cell viability ([13]; 1000 nM): 101%
cell viability ([13]; 10000 nM): 110%
cell viability ([3]; 1 nM): 107%
cell viability ([3]; 10 nM): 107%
cell viability ([3]; 100 nM): 101%
cell viability ([3]; 1000 nM): 95.8%
cell viability ([3]; 10000 nM): 101%
cell viability ([4]; 1 nM): 102%
cell viability ([4]; 10 nM): 101%
cell viability ([4]; 100 nM): 101%
cell viability ([4]; 1000 nM): 98.4%
cell viability ([4]; 10000 nM): 106%
relative viability EC50 [5]: > 10 µM
relative viability EC50 [14]: > 10 µM
relative viability EC50 [7]: > 10 µM
relative viability EC50 [8]: > 10 µM
drug sensitivity score [9]: 0
drug sensitivity score [15]: 0
drug sensitivity score [11]: 0
drug sensitivity score [12]: 0

C[C@H](N[C@@H](CCc1ccccc1)C(=O)O)C(=O)N1CCC[C@H]1C(=O)O [enalaprilat]
cell viability ([1]; 1 nM): 92.8%
cell viability ([1]; 10 nM): 104%
cell viability ([1]; 100 nM): 90.1%
cell viability ([1]; 1000 nM): 97.5%
cell viability ([1]; 10000 nM): 94.7%
cell viability ([13]; 1 nM): 101%
cell viability ([13]; 10 nM): 101%
cell viability ([13]; 100 nM): 105%
cell viability ([13]; 1000 nM): 89%
cell viability ([13]; 10000 nM): 97.2%
cell viability ([3]; 1 nM): 96.5%
cell viability ([3]; 10 nM): 97.9%
cell viability ([3]; 100 nM): 94.9%
cell viability ([3]; 1000 nM): 96.7%
cell viability ([3]; 10000 nM): 104%
cell viability ([4]; 1 nM): 97.5%
cell viability ([4]; 10 nM): 94.5%
cell viability ([4]; 100 nM): 99.1%
cell viability ([4]; 1000 nM): 101%
cell viability ([4]; 10000 nM): 107%
relative viability EC50 [5]: > 10 µM
relative viability EC50 [14]: > 10 µM
relative viability EC50 [7]: > 10 µM
relative viability EC50 [8]: > 10 µM
drug sensitivity score [9]: 0
drug sensitivity score [15]: 0.2
drug sensitivity score [11]: 0
drug sensitivity score [12]: 0

CC(=O)NC[C@H]1CN(c2ccc(N3CCN(C(=O)CO)CC3)c(F)c2)C(=O)O1 [eperezolid]
cell viability ([1]; 1 nM): 98.6%
cell viability ([1]; 10 nM): 96.9%
cell viability ([1]; 100 nM): 102%
cell viability ([1]; 1000 nM): 101%
cell viability ([1]; 10000 nM): 102%
cell viability ([2]; 1 nM): 99.1%
cell viability ([2]; 10 nM): 98.7%
cell viability ([2]; 100 nM): 89.1%
cell viability ([2]; 1000 nM): 88.2%
cell viability ([2]; 10000 nM): 81.1%
cell viability ([3]; 1 nM): 105%
cell viability ([3]; 10 nM): 99.4%
cell viability ([3]; 100 nM): 99.3%
cell viability ([3]; 1000 nM): 96.4%
cell viability ([3]; 10000 nM): 98.6%
cell viability ([4]; 1 nM): 96.3%
cell viability ([4]; 10 nM): 99.3%
cell viability ([4]; 100 nM): 97.5%
cell viability ([4]; 1000 nM): 97.1%
cell viability ([4]; 10000 nM): 93.5%
relative viability EC50 [5]: > 10 µM
relative viability EC50 [6]: > 10 µM
relative viability EC50 [7]: > 10 µM
relative viability EC50 [8]: > 10 µM
drug sensitivity score [9]: 0
drug sensitivity score [10]: 1.7
drug sensitivity score [11]: 0
drug sensitivity score [12]: 0

O=C1[C@H](CC[C@H](O)c2ccc(F)cc2)[C@@H](c2ccc(O)cc2)N1c1ccc(F)cc1 [ezetimibe]
cell viability ([1]; 1 nM): 97.6%
cell viability ([1]; 10 nM): 98.1%
cell viability ([1]; 100 nM): 93.3%
cell viability ([1]; 1000 nM): 95.9%
cell viability ([1]; 10000 nM): 88.9%
cell viability ([2]; 1 nM): 103%
cell viability ([2]; 10 nM): 96.6%
cell viability ([2]; 100 nM): 100%
cell viability ([2]; 1000 nM): 90.8%
cell viability ([2]; 10000 nM): 88.8%
cell viability ([3]; 1 nM): 95.9%
cell viability ([3]; 10 nM): 101%
cell viability ([3]; 100 nM): 95.8%
cell viability ([3]; 1000 nM): 104%
cell viability ([3]; 10000 nM): 91%
cell viability ([4]; 1 nM): 99.6%
cell viability ([4]; 10 nM): 106%
cell viability ([4]; 100 nM): 100%
cell viability ([4]; 1000 nM): 100%
cell viability ([4]; 10000 nM): 107%
relative viability EC50 [5]: > 10 µM
relative viability EC50 [6]: > 10 µM
relative viability EC50 [7]: > 10 µM
relative viability EC50 [8]: > 10 µM
drug sensitivity score [9]: 0
drug sensitivity score [10]: 0.2
drug sensitivity score [11]: 0
drug sensitivity score [12]: 0

O=C(O)Cc1sc(-c2ccccc2)nc1-c1ccc(Cl)cc1 [fentiazac]
cell viability ([1]; 1 nM): 100%
cell viability ([1]; 10 nM): 98.9%
cell viability ([1]; 100 nM): 92.6%
cell viability ([1]; 1000 nM): 97.6%
cell viability ([1]; 10000 nM): 95.3%
cell viability ([2]; 1 nM): 95.3%
cell viability ([2]; 10 nM): 103%
cell viability ([2]; 100 nM): 97.6%
cell viability ([2]; 1000 nM): 103%
cell viability ([2]; 10000 nM): 94.9%
cell viability ([3]; 1 nM): 99%
cell viability ([3]; 10 nM): 98.7%
cell viability ([3]; 100 nM): 95.2%
cell viability ([3]; 1000 nM): 93.9%
cell viability ([3]; 10000 nM): 92.4%
cell viability ([4]; 1 nM): 99.3%
cell viability ([4]; 10 nM): 101%
cell viability ([4]; 100 nM): 96%
cell viability ([4]; 1000 nM): 99.7%
cell viability ([4]; 10000 nM): 92.2%
relative viability EC50 [5]: > 10 µM
relative viability EC50 [6]: > 10 µM
relative viability EC50 [7]: > 10 µM
relative viability EC50 [8]: > 10 µM
drug sensitivity score [9]: 0
drug sensitivity score [10]: 0
drug sensitivity score [11]: 0
drug sensitivity score [12]: 0

N=C(N)c1ccc(-c2ccc(-c3ccc(C(=N)N)cc3)o2)cc1 [furamidine]
cell viability ([1]; 1 nM): 97%
cell viability ([1]; 10 nM): 92.8%
cell viability ([1]; 100 nM): 98.1%
cell viability ([1]; 1000 nM): 101%
cell viability ([1]; 10000 nM): 95%
cell viability ([13]; 1 nM): 92.6%
cell viability ([13]; 10 nM): 104%
cell viability ([13]; 100 nM): 97.1%
cell viability ([13]; 1000 nM): 96.4%
cell viability ([13]; 10000 nM): 110%
cell viability ([2]; 1 nM): 109%
cell viability ([2]; 10 nM): 97.2%
cell viability ([2]; 100 nM): 96.4%
cell viability ([2]; 1000 nM): 79.9%
cell viability ([2]; 10000 nM): 59.7%
cell viability ([4]; 1 nM): 99.7%
cell viability ([4]; 10 nM): 97.3%
cell viability ([4]; 100 nM): 97.9%
cell viability ([4]; 1000 nM): 97.8%
cell viability ([4]; 10000 nM): 102%
relative viability EC50 [5]: > 10 µM
relative viability EC50 [14]: > 10 µM
relative viability EC50 [8]: > 10 µM
drug sensitivity score [9]: 0
drug sensitivity score [15]: 0
drug sensitivity score [10]: 4.1
drug sensitivity score [12]: 0
